Our source for the Kd values is ChEMBL document CHEMBL1126352, “Novel stereoselective calcium channel ligands of the diphenylalkylamine-type” (Bioorg Med Chem Lett, 1992).

The target in the experiment is Voltage-gated L-type calcium channel (Rattus norvegicus, UniProt P22002+Q02485+P27732). Briefly: Inhibition of [3H]nitrendipine binding to calcium channel of rat brain membranes. The format is cell membranes, Membrane.
Turning to `CC(C)(C)c1ccc(CCCCN2CCC(C(O)(c3ccccc3)c3ccc(Cl)cc3)CC2)cc1` (racemic), the Kd worked out at 1.15e-7 M l-1. Under `CC(C)(C)c1ccc(CCCCN2CCC(C(O)(c3ccccc3)c3ccc(Cl)cc3)CC2)cc1` (stereo in doubt) stands 9.36e-8 M l-1; under `CC(Cc1ccccc1)NCCC(c1ccccc1)c1ccccc1` (stereo not drawn) [PRENYLAMINE], 2.09e-7 M l-1.
